Reference: PubChem BioAssay AID2060501 (Molecular Pharmacology Branch, DTP, NCI, 2025)
“And” between values parts separate entries of the source, which are not always exact repeats. Equal values may be shown once.

Tested on: 282377-053-R-J1-PDC complex spheroids, viability
Test: Anticancer human tumor 282377-053-R-J1-PDC patient-derived colon adenocarcinoma cell line growth inhibition [GQUAD]
Details: for viability, T/C: stronger effect = lower value
Description: DNA G-quadruplex Stabilizer Agents in Combinations in Complex Spheroids
A high-throughput screen of multi-cell type tumor spheroids was designed to identify active combinations of DNA G-quadruplex stabilizer agents and targeted small molecules. Complex spheroids include a stromal component modeled by human endothelial cells (HUVEC) and fibroblasts modeled by human mesenchymal stem cells (MSCs). The concentration ranges selected for each drug and investigational agent were based upon clinically achievable concentrations if the clinical Cmax of the agent was known.
Compounds. The drugs and investigational agents: pidnarulex (CX-5461; NSC782164), APTO-253 (NSC789042), BRACO-19 (NSC847499), peposertib (NSC802822), ceralasertib (NSC780249), elimusertib (NSC800525), camonsertib (NSC841442), AZD-1390 (NSC803789), olaparib (NSC753686), talazoparib (NSC767125), ART-558 (NSC835418), sotorasib (NSC818433), MRTX-1133 (NSC836407), SN-38 (NSC673596), topotecan (NSC609699), etoposide (NSC141540), doxorubicin (NSC123127), gemcitabine (NSC613327), 5-fluorouracil (NSC19893), paclitaxel (NSC125973), vemurafenib (NSC761431), panobinostat (NSC761190), R-306465 (JNJ-16241199; NSC773264), adavosertib (NSC754352), TP-3654 (NSC805149), carboplatin (NSC241240), KSQ-4279 (NSC840948), and staurosporine (NSC755774) were obtained from the National Cancer Institute (NCI) Developmental Therapeutics Program Chemical Repository (34). The FDA-approved anticancer drug set is available from the NCI Developmental Therapeutics Program. […] The stock solutions were prepared in dimethyl sulfoxide (DMSO, Sigma-Aldrich, St. Louis, MO, cat. D2650) at 800-fold the tested concentration and stored at -70 degrees C prior to their use. All drugs and investigational agents were tested over a range starting from a high concentration at or near the clinical Cmax and decreasing in half-log increments. If the clinical Cmax for an agent had not been determined, the highest concentration tested was 10 microM.
2.3 Cell Culture. All cells were maintained in an incubator at 37 degrees C and 5% CO2 with 95% humidity. The PDC lines were cultured according to standard operating procedures established by the NCI PDMR. All PDCs were thawed and cultured in Matrigel-coated flasks prepared with a working solution of 1X Ham's F-12 nutrient mix, without supplementation (Invitrogen, cat. 11765054), 100 U/mL penicillin-streptomycin (Invitrogen, cat. 15140122), and 2.5% Matrigel (Corning Inc., cat. 354248) for the first three passages. The 857933-349-R-J2-PDC line was cultured in 6C/Colon 1B media, which includes advanced DMEM/F-12 (Thermo Fisher Scientific, cat. 12634028), 10 mM HEPES (Thermo Fisher Scientific, cat. 15630080), 1X GlutaMAX supplement (Thermo Fisher Scientific, cat. 35050061), 0.1 mg/mL primocin (InvivoGen, cat. ant-pm-2), 10% defined fetal bovine serum, heat inactivated (HyClone Laboratories Inc., cat. SH30070.03HI), 50% L-WRN conditioned media (ATCC, cat. CRL-3276), 1.25 mM N-Acetyl-L-cysteine (Sigma-Aldrich, cat. A9165), 10 mM nicotinamide (Sigma-Aldrich, cat. N0636), 1X B-27 supplement (Thermo Fisher Scientific, cat. 17504044), 1X N-2 supplement (Thermo Fisher Scientific, cat. 17502048), 10 microM Y-27632 dihydrochloride (Tocris Bioscience, cat. 1254), and 50 ng/mL human EGF recombinant protein (Thermo Fisher Scientific, cat. PHG0311). The 485176-168-R4-J1-PDC line was cultured in Panc media, which includes all 6C/Colon 1B media components plus 100 ng/mL human FGF-10 (Thermo Fisher Scientific, cat. 100-26), 500 nM SB-431542 (Selleckchem, cat. S1067), and gastrin (Tocris, cat. 3006).
[…]

[1] = curve of first compound, second compound 0.0316 µM
[2] = curve of first compound, second compound 0.1 µM
[3] = curve of first compound, second compound 0.316 µM
[4] = curve of first compound, second compound 1 µM
[5] = curve of first compound, second compound 3.16 µM
[6] = curve of first compound, second compound 10 µM
[7] = second compound 0.0316 µM, first compound 0.0316 µM
[8] = second compound 0.0316 µM, first compound 0.1 µM
[9] = second compound 0.0316 µM, first compound 0.316 µM
[10] = second compound 0.0316 µM, first compound 1 µM
[11] = second compound 0.0316 µM, first compound 3.16 µM
[12] = second compound 0.0316 µM, first compound 10 µM
[13] = second compound 0.1 µM, first compound 0.0316 µM
[14] = second compound 0.1 µM, first compound 0.1 µM
[15] = second compound 0.1 µM, first compound 0.316 µM
[16] = second compound 0.1 µM, first compound 1 µM
[17] = second compound 0.1 µM, first compound 3.16 µM
[18] = second compound 0.1 µM, first compound 10 µM
[19] = second compound 0.316 µM, first compound 0.0316 µM
[20] = second compound 0.316 µM, first compound 0.1 µM
[21] = second compound 0.316 µM, first compound 0.316 µM
[22] = second compound 0.316 µM, first compound 1 µM
[23] = second compound 0.316 µM, first compound 3.16 µM
[24] = second compound 0.316 µM, first compound 10 µM
[25] = second compound 1 µM, first compound 0.0316 µM
[26] = second compound 1 µM, first compound 0.1 µM
[27] = second compound 1 µM, first compound 0.316 µM
[28] = second compound 1 µM, first compound 1 µM
[29] = second compound 1 µM, first compound 3.16 µM
[30] = second compound 1 µM, first compound 10 µM
[31] = second compound 3.16 µM, first compound 0.0316 µM
[32] = second compound 3.16 µM, first compound 0.1 µM
[33] = second compound 3.16 µM, first compound 0.316 µM
[34] = second compound 3.16 µM, first compound 1 µM
[35] = second compound 3.16 µM, first compound 3.16 µM
[36] = second compound 3.16 µM, first compound 10 µM
[37] = second compound 10 µM, first compound 0.0316 µM
[38] = second compound 10 µM, first compound 0.1 µM
[39] = second compound 10 µM, first compound 0.316 µM
[40] = second compound 10 µM, first compound 1 µM
[41] = second compound 10 µM, first compound 3.16 µM
[42] = second compound 10 µM, first compound 10 µM
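Also: spheroids exposed to compounds for 7 days before readout.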
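For viability, T/C in this document: percent of vehicle DMSO control viability with 100% = untreated-like growth.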

O=C(NO)c1cnc(N2CCN(S(=O)(=O)c3ccc4ccccc4c3)CC2)nc1 + CN(C)c1ccc(Nc2c3ccc(NC(=O)CCN4CCCC4)cc3nc3cc(NC(=O)CCN4CCCC4)ccc23)cc1
IC50 [1]: 518 nM | IC50 [2]: 512 nM | IC50 [3]: 536 nM | IC50 [4]: 508 nM | IC50 [5]: 578 nM | IC50 [6]: 464 nM | viability, T/C [7]: 107% | viability, T/C [8]: 128% | viability, T/C [9]: 86.8% | viability, T/C [10]: 2.18% | viability, T/C [11]: 0.16% | viability, T/C [12]: 0.17% | viability, T/C [13]: 110% | viability, T/C [14]: 93.4% | viability, T/C [15]: 83.6% | viability, T/C [16]: 3.12% | viability, T/C [17]: 0.11% | viability, T/C [18]: 0.12% | viability, T/C [19]: 111% | viability, T/C [20]: 101% | viability, T/C [21]: 90.6% | viability, T/C [22]: 2.03% | viability, T/C [23]: 0.1% | viability, T/C [24]: 0.11% | viability, T/C [25]: 103% | viability, T/C [26]: 120% | viability, T/C [27]: 84% | viability, T/C [28]: 2.22% | viability, T/C [29]: 0.08% | viability, T/C [30]: 0.11% | viability, T/C [31]: 113% | viability, T/C [32]: 92.1% | viability, T/C [33]: 106% | viability, T/C [34]: 1.28% | viability, T/C [35]: 0.14% | viability, T/C [36]: 0.13% | viability, T/C [37]: 93% | viability, T/C [38]: 87.8% | viability, T/C [39]: 73.1% | viability, T/C [40]: 3.72% | viability, T/C [41]: 0.18% | viability, T/C [42]: 0.17%

CC1COCCN1c1cc(C2(O)CC3CCC(C2)O3)c2cnn(-c3ccn[nH]3)c2n1 (configuration not stated)
viability, T/C (compound 0.0316 µM): 80.7% and 77.9% and 79.5% | viability, T/C (compound 0.1 µM): 70% and 87.8% and 83.6% | viability, T/C (compound 0.316 µM): 61.8% and 55.8% and 62.1% | viability, T/C (compound 1 µM): 33.2% and 34.6% and 34.8% | viability, T/C (compound 3.16 µM): 24.2% and 20.5% and 35.2% | viability, T/C (compound 10 µM): 16.9% and 16.5% and 24.2% | IC50 (curve of compound): 491 nM and 478 nM and 530 nM

O=C(NO)c1cnc(N2CCN(S(=O)(=O)c3ccc4ccccc4c3)CC2)nc1
viability, T/C (compound 0.0316 µM): 58.1% and 117% and 100% | viability, T/C (compound 0.1 µM): 20% and 107% and 82% | viability, T/C (compound 0.316 µM): 22.4% and 79.1% and 64.8% | viability, T/C (compound 1 µM): 21.8% and 2.34% and 0.84% | viability, T/C (compound 3.16 µM): 24.6% and 0.24% and 0.11% | viability, T/C (compound 10 µM): 25.1% and 0.26% and 0.18%

O=C(c1cc(Cc2n[nH]c(=O)c3ccccc23)ccc1F)N1CCN(C(=O)C2CC2)CC1 + Cc1[nH]c2ccc(F)cc2c1-c1nc2c3cccnc3c3ncccc3c2[nH]1
IC50 [1]: > 10000 nM | IC50 [2]: > 10000 nM | IC50 [3]: > 10000 nM | IC50 [4]: > 10000 nM | IC50 [5]: > 10000 nM | IC50 [6]: 1550 nM | viability, T/C [7]: 134% | viability, T/C [8]: 107% | viability, T/C [9]: 102% | viability, T/C [10]: 122% | viability, T/C [11]: 110% | viability, T/C [12]: 92% | viability, T/C [13]: 87.8% | viability, T/C [14]: 98.6% | viability, T/C [15]: 99.2% | viability, T/C [16]: 99.6% | viability, T/C [17]: 105% | viability, T/C [18]: 89% | viability, T/C [19]: 92.8% | viability, T/C [20]: 115% | viability, T/C [21]: 101% | viability, T/C [22]: 107% | viability, T/C [23]: 97.1% | viability, T/C [24]: 97% | viability, T/C [25]: 101% | viability, T/C [26]: 111% | viability, T/C [27]: 122% | viability, T/C [28]: 111% | viability, T/C [29]: 110% | viability, T/C [30]: 114% | viability, T/C [31]: 75.4% | viability, T/C [32]: 76.7% | viability, T/C [33]: 93% | viability, T/C [34]: 79.1% | viability, T/C [35]: 69.8% | viability, T/C [36]: 54.7% | viability, T/C [37]: 58.2% | viability, T/C [38]: 40.2% | viability, T/C [39]: 71.9% | viability, T/C [40]: 57.9% | viability, T/C [41]: 38.4% | viability, T/C [42]: 25.8%
